# Laboratory results taken from paper PMC4941353, “Interaction of antihistaminic drugs with human translationally controlled tumor protein (TCTP) as novel approach for differentiation therapy” (Oncotarget, 2016).
# Key:
# [1] = target: T1, translationally controlled tumor protein (TCTP) (Homo sapiens, UniProt P13693); test: microscale thermophoresis with amine-labeled (BLUE-NHS) purified TCTP, buffer with […] chloroform; type: binding
# T1 construct: gene TPT1; recombinant human TCTP (172 amino acids), codon-optimized, expressed in E. coli, intein tag cleaved on column
# T1 sequence (P13693 1-172): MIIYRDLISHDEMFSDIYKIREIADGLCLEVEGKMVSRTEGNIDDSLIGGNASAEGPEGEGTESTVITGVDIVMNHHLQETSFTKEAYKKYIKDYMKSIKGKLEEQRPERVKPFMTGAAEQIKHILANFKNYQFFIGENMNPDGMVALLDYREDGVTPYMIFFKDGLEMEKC
# [2] = target: T1, translationally controlled tumor protein (TCTP); test: microscale thermophoresis with amine-labeled (BLUE-NHS) purified TCTP; type: binding
SMILES,Kd [1] [µM],Kd [2] [µM]
CC(C)(C)c1ccc(CN2CCN(C(c3ccccc3)c3ccc(Cl)cc3)CC2)cc1 (centres unmarked) [buclizine],433 ± 47.1,–
COc1ccc2c(c1)N(C[C@H](C)CN(C)C)c1ccccc1S2 [levomepromazine],–,57.2 ± 6.49
